Where two headings read alike, the source gives them in different places.
Legend:
[1] = system: SSAT mRNA; test: Northern blot analysis of SSAT mRNA in clone H-10 cells ±Dox treated with DENSPM; type: cell-based, human; conditions: for SSAT mRNA / SSAT Effects: mRNA (fold): 48 h; for SSAT mRNA: relative to closed untreated = 1; for SSAT Effects: mRNA (fold): DENSPM 10 μM
Experimental: (§1) A MCF-7 breast carcinoma cell line stably transfected with a tetracycline-off transfection system was purchased from Clontech Laboratories Inc. (Palo Alto, Calif.). The cells were cultured in Dulbecco's Modified Eagle's Medium (DMEM; Life Technologies, Gaithersburg, Md.), supplemented with 2 mM glutamine, 10% fetal bovine serum, penicillin at 100 U/ml, streptomycin at 100 U/ml and the antibiotic G418 (Life Technologies) at 100 μg/ml at 37° C. in the presence of 5% CO2.Cells were harvested by trypsinization and counted electronically (Coulter Model ZM, Coulter Electronics, Hialeah, Fla.). During treatment with polyamines or analogs, 1 mM aminoguanidine was routinely included in the media to prevent enzymatic oxidation to toxic products.
(§2) Total RNA was extracted with guanidine isothiocyanate and purified by the commonly used cesium chloride gradient centrifugation. Human SSAT cDNA probe (Xiao et al, 1991, supra) was used in Northern blot analyses. ODC and SSAT enzyme activities were assayed as reported earlier (Kramer et al., 1995, J. Biol. Chem. 270, 2124-2132.31). Polyamines, their acetylated derivatives and the polyamine analog DENSPM were measured by high performance liquid chromatography as previously described in detail by Kramer et al. (Kramer et al., 1993, supra), which method is incorporated herein by reference.
(§3) To enhance the growth inhibitory effects of DENSPM, and to more definitively examine the relationship between SSAT overexpression and cell growth, a cell line was developed in which SSAT expression is conditionally regulated by doxycycline (DOX) an analog of tetracycline which penetrates cells more effectively. MCF-7 cells containing the pTet-Off plasmid were transfected with the PTRE/expression plasmids described above using the Lipofectin method (Notarangelo et al., 1997, Focus, 19, 58-59, incorporated herein by reference). To facilitate clone selection, cells were co-transfected with a pTK-Hyg vector (Clontech Laboratories, Inc.). Transfected clones resistant to […] hygromycin were selected and tested for SSAT enzyme activity and/or mRNA in the presence or absence of 200 ng/ml Dox [+Dox and −Dox, respectively (Clontech Laboratories, Inc)]. In the presence of Dox, SSAT transcription is closed; in the absence of Dox, SSAT transcription is open. […] Clones, which expressed the lowest basal levels of SSAT activity or mRNA in +Dox and the greatest induced level of SSAT activity or mRNA −Dox, were selected for further study. Clones were maintained continuously under +Dox conditions until experiments were initiated.
(§4) In this table are presented the effects of conditional overexpression on DENSPM induced SSAT mRNA and activity and on polyamine pool depletion. When exposed to 10 μM DENSPM for 24 h, MRNA levels increased by 4-fold in induced cells and remained at ^˜20-fold in uninduced cells. Presumably, some rate-limiting step prevented DENSPM from increasing MRNA beyond the already high levels in these cells.

[2] = system: spermidine-spermine N^1-acetyltransferase (SSAT); test: SSAT enzyme activity in clone H-10 cells ±Dox treated with DENSPM; type: cell-based, human; conditions: for increase in SSAT activity: 10 μM DENSPM; for DENSPM-induced SSAT activity: cells transfected with human SSAT cDNA; for SSAT Activity / SSAT Effects: Activity (fold): 48 h; for SSAT Activity: relative to closed untreated = 1; for SSAT Effects: Activity (fold): DENSPM 10 μM
Experimental: as §1, §2, §3, §4

[3] = system: Polyamine pools in H-10 cells; test: Polyamine pools by HPLC in H-10 cells ±Dox treated with DENSPM; type: cell-based, human; conditions: for Polyamine Pools: AcSpd / Polyamine Pools: AcSpm / Polyamine Pools: Put / Polyamine Pools: Spd / Polyamine Pools: Spm: 48 h
Experimental: as §1, §2, §4

[4] = system: MCF-7/hSc clone H-10 cells; test: Growth inhibition and dose-response of clone H-10 cells (MCF-7/hSc) ±Dox by DENSPM; type: cell-based, human; conditions: for growth inhibition: by 48 h; for Growth Effects: Onset of cytotoxicity: DENSPM 10 μM
Experimental: as §1
(§5) Relative growth inhibition by DENSPM. The relative antiproliferative effect exerted by DENSPM in H-10 and M-3 cells grown ±Dox was studied over an extended (8 d) time period. As shown in the FIG. 9, H-10-Dox cells were strikingly more sensitive to the antiproliferative action of the DENSPM than +Dox cells. Less than 15% growth inhibition was achieved by 48 h in +Dox H-10 cells compared to >80% in −Dox cells (FIG. 9). […] As a generality, DENSPM-mediated growth inhibition tended to be more cytotoxic during SSAT induction as indicated by the rapid loss in cell number (FIG. 9).
The increased sensitivity of SSAT induced H-10 cells to DENSPM was quantitated by dose-response analysis. Cells were grown for 48 h ±Dox and then exposed to increasing concentrations of DENSPM for 48 h (FIG. 10). In the IC50 comparisons, −Dox cells were about approximately 100-fold more sensitive to DENSPM than +Dox cells (i.e. comparing IC50 values of 0.2 and 20 μM, respectively).

[5] = system: MCF-7/mSg clone M-3 cells; test: Growth inhibition of clone M-3 cells (MCF-7/mSg) ±Dox by DENSPM; type: cell-based, human
Experimental: as §1, §5

[6] = system: ornithine decarboxylase (ODC); test: ODC enzyme activity in H-10 cells treated with DENSPM; type: cell-based, human; conditions: both +Dox and -Dox cells, irrespective of SSAT induction
Experimental: as §1
as §2, with “reference. […]” for “reference.”

[7] = system: spermidine-spermine N^1-acetyltransferase (SSAT); conditions: in many tumor cells; cited from earlier work

IC50 ([4]; +Dox H-10 cells, grown 48 h ±Dox, then DENSPM 48 h, read-out: IC50 of DENSPM (growth)): 20 µM
IC50 ([4]; -Dox H-10 cells, grown 48 h ±Dox, then DENSPM 48 h, read-out: IC50 of DENSPM (growth)): 0.2 µM
IC50 ([4]; Closed (Dox 200 ng/ml), 48 h, read-out: Growth Effects: IC50 Dose): 200 µM
SMILES: CCNCCCNCCCNCCCNCC [DENSPM, N^1, N^11diethylnorspermine]
SSAT mRNA levels increase ([1]; 10 μM DENSPM for 24 h, 'induced cells' as printed): 4 fold
SSAT mRNA levels ([1]; 10 μM DENSPM for 24 h, 'uninduced cells' as printed): ~20 fold
SSAT mRNA ([1]; Closed (+Dox) +DENSPM): 8 X
SSAT Effects: mRNA (fold) ([1]; Closed (Dox 200 ng/ml)): 8X fold
SSAT mRNA ([1]; Open (-Dox) +DENSPM): 20 X
SSAT Effects: mRNA (fold) ([1]; Open (no Dox)): 20X fold
increase in SSAT activity ([2]; +Dox cells): > 80 fold
DENSPM-induced SSAT activity ([2]; +Dox conditions (closed)): ~90 fold
increase in SSAT activity ([2]; -Dox cells): > 1500 fold
DENSPM-induced SSAT activity ([2]; -Dox conditions (open)): 1700 fold
SSAT Activity ([2]; Closed (+Dox) +DENSPM): 89 X
SSAT Effects: Activity (fold) ([2]; Closed (Dox 200 ng/ml)): 89X fold
SSAT Activity ([2]; Open (-Dox) +DENSPM): 1,700 X
SSAT Effects: Activity (fold) ([2]; Open (no Dox)): 1700X fold
difference in SSAT activity with DENSPM treatment, open vs closed ([2]; from Table 3): about 20 fold
Polyamine Pools: AcSpd ([3]; Closed (+Dox) +DENSPM): 20 pmol/10^6 cells
Polyamine Pools: AcSpm ([3]; Closed (+Dox) +DENSPM): 50 pmol/10^6 cells
Polyamine Pools: Put ([3]; Closed (+Dox) +DENSPM): 50 pmol/10^6 cells
Polyamine Pools: Spd ([3]; Closed (+Dox) +DENSPM): 110 pmol/10^6 cells
Polyamine Pools: Spm ([3]; Closed (+Dox) +DENSPM): 750 pmol/10^6 cells
Polyamine Pools: AcSpd ([3]; Open (-Dox) +DENSPM): <5 pmol/10^6 cells
Polyamine Pools: AcSpm ([3]; Open (-Dox) +DENSPM): 20 pmol/10^6 cells
Polyamine Pools: Put ([3]; Open (-Dox) +DENSPM): <5 pmol/10^6 cells
Polyamine Pools: Spd ([3]; Open (-Dox) +DENSPM): <5 pmol/10^6 cells
Polyamine Pools: Spm ([3]; Open (-Dox) +DENSPM): 65 pmol/10^6 cells
depletion of all three polyamines ([3]; by 48 h, both +Dox and -Dox cells): near total depletion
growth inhibition ([4]; +Dox H-10 cells): Less than 15%
growth inhibition ([4]; -Dox H-10 cells): > 80%
Growth Effects: Onset of cytotoxicity ([4]; Closed (Dox 200 ng/ml)): 4 days
Growth Effects: Onset of cytotoxicity ([4]; Open (no Dox)): immediate
growth inhibition ([5]; induced M-3 cells): 78%
growth inhibition ([5]; uninduced M-3 cells): 25%
effect on ODC activity [6]: suppressed ODC activity
induction of SSAT activity [7]: exceed 1000 fold

Source: US6413775B1, “Polyamine analog-activated SSAT gene therapy” (Health Research, Inc., priority 1999, dated 2002)
